The term IC50 denotes the concentration at which inhibition is half-maximal.

This assay is described as follows: Inhibition of human Nav1.8 expressed in HEK293 cells assessed as sodium current flow at holding potential of -90mV by Whole cell-automated patch clamp assay. It is filed as cell-based.
As to `O=C1NC[C@@H](C(=O)NC(c2ccc(Cl)cc2)c2ccc(F)c(Cl)c2)O1` (stereo partly specified), the IC50 was 0.9 nM.
For `O=C1NC[C@@H](C(=O)NC(c2ccc(F)c(Cl)c2)c2ccc(F)c(Cl)c2)O1` the value was 0.7 nM; for `O=C1NC[C@@H](C(=O)NC(c2ccc(Cl)cc2)c2ccc(Cl)c(C(F)(F)F)c2)O1` (stereo partly specified), 0.4 nM.
With `O=C1NC[C@@H](C(=O)NC(c2ccc(Cl)cc2)c2ccc(Cl)c(C(F)(F)F)n2)O1` (stereo partly specified), the IC50 was determined as 0.6 nM.
The value for `O=C1NC[C@@H](C(=O)NC(c2ccc(OC(F)(F)F)c(Cl)c2)c2cnn(C(F)(F)F)c2)O1` (stereo partly specified) was 1.2 nM; that for `Cc1cc(C(NC(=O)[C@@H]2CNC(=O)O2)c2ccc(Cl)cc2)ccc1Cl` (stereo partly specified) was 0.6 nM.

For the origin of these results see ChEMBL document CHEMBL5036374, “2-Oxooxazolidine-5-carboxamides as Nav1.8 Inhibitors for Treating Pain Disorders, Cough Disorders, and Acute and Chronic Itch Disorders” (ACS Med Chem Lett, 2022).
